Data reported in patent publication US20070196883A1, “ENZYME” (UNIVERSITY OF DUNDEE, priority 1999, published 2007).
“Also recorded” adds a separate entry of the source.

Columns and labels:
[1] = biological target: T1, GST-PIF/PDK1 complex (Homo sapiens, UniProt O15530); test: Phosphorylation of GST-PKBα at Ser473 by GST-PIF/PDK1 (P-473 immunoblot); assay type: biochemical; settings: lipid 10 μM in PtdCho/PtdSer vesicles, MgATP, 60 min 30° C.
T1 construct: endogenous in cells; host or cells: 293 cells transfected with pEBG2T GST-PIF; endogenous PDK1 co-purified on glutathione-Sepharose
T1 sequence (O15530 whole entry): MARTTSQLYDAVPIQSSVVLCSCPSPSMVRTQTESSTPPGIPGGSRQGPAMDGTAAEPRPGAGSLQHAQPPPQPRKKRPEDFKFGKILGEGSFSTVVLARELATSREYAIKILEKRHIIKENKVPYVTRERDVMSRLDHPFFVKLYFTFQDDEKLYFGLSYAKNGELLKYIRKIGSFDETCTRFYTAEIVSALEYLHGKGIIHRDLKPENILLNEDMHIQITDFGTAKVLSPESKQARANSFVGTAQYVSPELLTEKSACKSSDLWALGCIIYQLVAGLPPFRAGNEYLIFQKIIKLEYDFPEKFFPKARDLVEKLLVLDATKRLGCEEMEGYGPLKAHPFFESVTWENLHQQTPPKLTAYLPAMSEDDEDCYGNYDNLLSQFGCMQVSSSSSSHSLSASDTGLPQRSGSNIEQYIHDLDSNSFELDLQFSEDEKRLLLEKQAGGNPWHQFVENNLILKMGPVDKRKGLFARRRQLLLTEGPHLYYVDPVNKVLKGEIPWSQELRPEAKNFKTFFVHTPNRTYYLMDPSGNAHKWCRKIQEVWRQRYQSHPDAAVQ
T1 sequence (Q16513 908-984 partner): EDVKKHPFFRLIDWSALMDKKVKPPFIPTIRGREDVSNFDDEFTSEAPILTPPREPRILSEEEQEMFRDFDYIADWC
Experimental: FIG. 5. The ability of GST-PIF to phosphorylate PKBα at Ser473 is dependent upon the presence of PDK1. GST-PIF purified from 293 cells, FIG. 2C (20 μg in 50 μl) was incubated with Protein G-Sepharose (10 μl) conjugated with either no antibody (control), MSK1 antibody A [40] (5 μg, non specific antibody), a PDK1 antibody raised against the whole protein (5 μg) or a PDK1 peptide antibody raised against the 16 C-terminal amino acid residues of PDK1 (5 μg, peptide antibody) in the presence or absence of the PDK1 C-terminal peptide immunogen (0.2 mM) to which this antibody was raised. After incubation on a shaking platform for 60 min at 4° C., the suspension was centrifuged and GST-PIF in the supernatant (2.0 μg) was incubated with GST-PKBα and MgATP for 60 min at 30° C. in the presence or absence of phospholipid vesicles containing 100 μM PtdCho, 100 μM PtdSer, and 10 μM sn-1-stearoyl-2-arachidonoyl-D-PtdIns(3,4,5)P3 (1,2-SAD-PtdIns(3,4,5)P3), or sn-1,2 di-palmitoyl-D-PtdIns(3,4,5)P3 (C16-PtdIns(3,4,5)P3) or sn-1,2 di-palmitoyl-D-PtdIns(3,4)P2 (C16-PtdIns(3,4)P2). The reactions were terminated by making the solutions 1% in SDS, and the samples were subjected to SDS/polyacylamide gel electrophoresis and immunoblotted using the P-Ser473 antibody. Identical results were obtained in 2 separate experiments (B) The wild type and mutant GST-PIF proteins (2.0 μg) used in FIG. 3 were incubated with GST-PKBα and MgATP for 60 min at 30° C. in the presence or absence of lipid vesicles containing 10 μM sn-1-stearoyl-2-arachidonoyl-D-PtdIns(3,4,5)P3 and the degree of phosphorylation of PKBα at Ser473 was established by immunoblotting. Similar results were obtained in 4 separate experiments using 2 different preparations of the wild type and mutant GST-PIF proteins.
FIG. 7. Specificity of phosphoinositide-dependent PIF/PDK1-induced phosphorylation of Thr308 and Ser473 of PKBα. GST-PKBα was incubated for 60 min at 30° C. with GST-PIF purified from 293 cells (which is associated with endogenous PDK1 see FIG. 3) (1.0 μg), MgATP and phospholipid vesicles containing 100 μM PtdCho, 100 μM PtdSer, and various PtdIns lipids (numbered 1-11, see below) all at a final concentration of 10 μM in the assay. In panel A the reactions were terminated by the addition of Triton X100 and the increase in specific activity of GST-S473D-PKBα (U/mg), determined, relative to a control incubation in which GST-PIF was omitted (±SEM for 6 determinations, two independent experiments). The basal activity of GST-S473D-PKBα was 3.5 U/mg. In Panel B the reactions were terminated by making the solutions 1% in SDS, the samples were subjected to SDS/polyacylamide gel electrophoresis and the extent of PKBα phosphorylation was established using the phospho-specific antibody that recognises PKBα phosphorylated at Ser 473. In B the results of 2 separate experiments with different preparations of lipid are shown. Lipid 1, Buffer control; Lipid 2, PtdIns 3P; Lipid 3, n-1,2-dipalmitoyl PtdIns(3,4)P2; Lipid 4, PtdIns(3,5)P2; Lipid 5, PtdIns(4,5)P2; Lipid 6, sn-1,2-dipalmitoyl D-PtdIns(3,4,5)P3; Lipid 7, rac-1,2-dilinoleoyl phosphatidyl D/L-myo-inositol 3,4,5trisphosphate; Lipid 8, sn-1-stearoyl, 2-arachidonoyl D-PtdIns(3,4,5,)P3; Lipid 9, sn-1-stearoyl, 2-arachidonoyl L-PtdIns(3,4,5,)P3; Lipid 10, sn-2-stearoyl, 3-arachidonoyl D-PtdIns(3,4,5,)P3; Lipid 11, sn-2-ste aroyl, 3-arachidonoyl L-PtdIns(3,4,5,)P3.
Phosphorylation of GST-PKBα by incubation with GST-PIF. In experiments in which the phosphorylation of PKBα was determined using the phospho-specific Ser473 PKBα antibodies, the incubations were identical to the Stage 1 described above except that the reactions were terminated by the addition of 1% (by mass) SDS and immunoblotting is carried out as described below. In experiments in which the sites of phosphorylation on PKBα are determined the incubations were identical to the Stage 1 described above except [γ^32P] ATP (1000-2000 cpm/pmol) was used instead of unlabelled ATP. […]

[2] = tested on: PDK1; test: Activation of GST-ΔPH-PKBα by PDK1 with or without PIF and phosphoinositide; assay type: biochemical; settings: for rate at which GST-PIF/PDK1 complex activates GST-ΔPH-PKBα, presence versus absence of lipid: GST-PIF/PDK1 complex purified from 293 cells
Experimental: FIG. 8. Maximal activation of PKB by PDK1/PIF requires PtdIns(3,4,5)P3 to interact with both PKB and PDK1. […] The basal activity of GST-ΔPH-PKBα was 3.0 U/mg.
Measurement of PKBα activation after incubation with GST-PIF. This assay was carried out in 2 stages, as described previously; briefly, in the first, GST-PKBα was incubated with GST-PIF (or other indicated PDK1 proteins in the presence or absence of peptides) in the presence of MgATP and phospholipid vesicles.
In Stage 1, an 15 μl reaction mixture was set up containing 66.5 mM Tris/HCl pH 7.5, 0.13 mM EGTA, 0.13% (by vol) 2-mercaptoethanol, 3.3 μM PKI, 1.3 μM microcystin-LR, 13.3 mM Mg(Ac)2, 133 μM unlabelled ATP, 0.4 μM GST-PKBA, 133 μM PtdSer, 133 μM PtdCho in the presence or absence of 13.3 μM PtdIns(3,4,5)P3. The assay was initiated by the addition of 5 μl of 0.2 mg/ml GST-PIF (or other indicated proteins or peptides), after incubation for 30 min at 30° C., stage 2 of the assay was initiated by the addition of 30 μl of a mixture made up of Buffer B containing 2.5 μM PKI, 1 μM microcystin-LR, 10 mM Mg(Ac)2, 100 μM [γ^32P]ATP (200-400 cpm/pmol), 100 μM of the peptide RPRTAAF (SEQ ID NO:13) and 1.25% (by vol) Triton X-100. After 10 min at 30° C., the reactions were terminated by spotting the reaction mixture on to P81 phosphocellulose paper. The papers were washed in 75 mM phosphoric acid and analysed as described previously. A control reaction in which GST-PKBα was omitted was taken as the blank and was always less than 5% of the activity measured in the presence of GST-PKBα. The basal GST-PKBα activity is the activity measured in the absence of PDK1. 1 Unit of GST-PKBα activity was that amount of enzyme required to catalyse the phosphorylation of 1 nmol of the peptide RPRTAAF (SEQ ID NO:13) in 1 min. The assays were linear with time up to a final concentration of 3 U/ml of PDK1 activity in the assay.

phosphorylation of GST-PKBα at Ser473 [1]	Compound	rate at which GST-PIF/PDK1 complex activates GST-ΔPH-PKBα, presence versus absence of lipid [2]	other results
may also be effective	CCCCC/C=C\C/C=C\CCCCCCCC(=O)OCC(COP(=O)(O)OC1C(O)C(OP(=O)(O)O)C(OP(=O)(O)O)C(OP(=O)(O)O)C1O)OC(=O)CCCCCCC/C=C\C/C=C\CCCCC (racemic) [Lipid 7, rac-1,2-dilinoleoyl phosphatidyl D/L-myo-inositol 3,4,5-trisphosphate]	–	–
may also be effective	CCCCCCCCCCCCCCCC(=O)OCC(COP(=O)(O)OC1C(O)C(O)C(OP(=O)(O)O)C(OP(=O)(O)O)C1O)OC(=O)CCCCCCCCCCCCCCC (stereo not drawn) [Lipid 3, sn-1,2-dipalmitoyl PtdIns(3,4)P2]	~4 fold	phosphorylation of GST-PKBα at Ser473 ([1]; listed as PtdIns(3,4)P2): strongly phosphorylated
may also be effective	CCCCCCCCCCCCCCCC(=O)OC[C@H](COP(=O)(O)OC1[C@H](O)[C@H](OP(=O)(O)O)C(OP(=O)(O)O)[C@H](OP(=O)(O)O)[C@H]1O)OC(=O)CCCCCCCCCCCCCCC (stereo partly drawn) [Lipid 6, sn-1,2-dipalmitoyl D-PtdIns(3,4,5)P3]	–	–
did not induce	PtdIns(3,5)P2 [Lipid 4]	–	–
did not induce	PtdIns(4,5)P2 [Lipid 5]	do not increase	–
did not induce	PtdIns-3P [Lipid 2]	do not increase	–

Compound	phosphorylation of GST-PKBα at Ser473 [1]	rate at which GST-PIF/PDK1 complex activates GST-ΔPH-PKBα, presence versus absence of lipid [2]	other results
CCCCC/C=C\C/C=C\C/C=C\C/C=C\CCCC(=O)O[C@H](COC(=O)CCCCCCCCCCCCCCCCC)COP(=O)(O)O[C@H]1[C@@H](O)[C@H](OP(=O)(O)O)[C@@H](OP(=O)(O)O)[C@H](OP(=O)(O)O)[C@H]1O [Lipid 8, sn-1-stearoyl, 2-arachidonoyl D-PtdIns(3,4,5,)P3]	highly effective; also recorded: may be capable of enhancing	~4 fold	phosphorylation of GST-PKBα at Ser473 ([1]; listed as PtdIns(3,4,5)P3): strongly phosphorylated; enhancement of the rate at which PDK1 complexed to PIF activates GST-ΔPH-PKBα ([2]; His-PDK1/GST-PIF*, presence versus absence of lipid): 3 to 4 fold; rate at which His-PDK1 activates GST-ΔPH-PKBα, presence versus absence of lipid ([2]; His-PDK1 alone, no PIF): the same
CCCCC/C=C\C/C=C\C/C=C\C/C=C\CCCC(=O)O[C@H](COC(=O)CCCCCCCCCCCCCCCCC)COP(=O)(O)OC1[C@@H](O)[C@H](OP(=O)(O)O)C(OP(=O)(O)O)[C@H](OP(=O)(O)O)[C@H]1O (stereo partly drawn) [Lipid 9, sn-1-stearoyl, 2-arachidonoyl L-PtdIns(3,4,5,)P3]	failed to induce a significant phosphorylation; also recorded: may not induce	–	–
CCCCC/C=C\C/C=C\C/C=C\C/C=C\CCCC(=O)OC[C@@H](COP(=O)(O)O[C@H]1[C@@H](O)[C@H](OP(=O)(O)O)[C@@H](OP(=O)(O)O)[C@H](OP(=O)(O)O)[C@H]1O)OC(=O)CCCCCCCCCCCCCCCCC [Lipid 10, sn-2-stearoyl, 3-arachidonoyl D-PtdIns(3,4,5,)P3]	highly effective; also recorded: may be capable of enhancing	–	–
sn-2-ste aroyl, 3-arachidonoyl L-PtdIns(3,4,5,)P3 [Lipid 11]	failed to induce a significant phosphorylation; also recorded: may not induce	–	–
